Measured values as given in patent US9353084B2, “2-amino 3,5,5-trifluoro-3,4,5,6-tetrahydropyridines as BACE1 inhibitors for treatment of Alzheimer's disease” (H. Lundbeck A/S, priority 2014, dated 2016).
Structures can show the parent of a compound that is named as a salt. Where two headings read alike, the source gives them in different places.

Legend:
[1] = tested on: Aβ40; assay: Assessment of Aβ40 levels in rat brain and plasma following BACE1 inhibition (ELISA); type: in vivo; conditions: 3 hours post dose, vs vehicle
Protocol: (§1) Young adult Male Sprague Dawley rats of approximately 250 g weight were purchased from Charles River and received 0-30 mg/kg of vehicle (10% HP betaCD+1M MeSO4, pH 2.5) or test compounds (dissolved in vehicle) only by oral gavage (p.o). The compounds are dosed at a volume of 5 ml/kg. Cohorts of 5-10 animals were established for each treatment condition.
(§2) At T=180 minutes after initial dosing the animals were stunned and decapitated with a guillotine. Trunk-blood was sampled in EDTA coated tubes after decapitation of the animal. The blood was centrifuged at 2200 G at 4° C. for 15 minutes and the plasma was collected and frozen at −80° C. The blood was aliquoted for Aβ ELISA and DMPK analysis Immediately following sacrifice, the brain was extracted and split into 2 halves. The right hemibrains were snap frozen on dry ice and stored at −80° C. The left half was dissected; with the front forebrain taken for Aβ ELISA and the remainder used for DMPK analysis. These samples were also snap frozen on dry ice and stored at −80° C. until use for analysis.
The cortex samples were thawed slightly on wet ice before they were homogenized with a small volume dispersing instrument (T10 basic ULTRA-TURRAX®) which was set at speed 5 for approximately 5-7 sec. The tissue was processed in a 10 times volume of the weight, for example 100 mg of tissue was homogenized in 1000 μL of Homogenization buffer. Homogenization buffer: 50 ml Milli Q water+[…]+0.2% Diethylamin (DEA)+1 tablet of Complete Protease inhibitor cocktail+1 nM 4-(2-aminoethyl)benzenesulfonyl fluoride hydrochloride irreversible serine protease inhibitor (AEBSF).
After homogenization 450 μL aliquots of the samples are collected into a 1.5 ml Eppendorf tube and placed on wet ice, 0.5% NP-40 (50 ul) was added to all samples and then they were incubated on ice for 30 min. After which all samples were sonicated using an Ultrasonic homogenizer with 20 kHz homogeneous sound (SONOPLUS HD2070, Bandelin Electronic) 10 pulse set at 12-13% power to extract all the Aβ species. The samples were then centrifuged (Ole Dich 157 MPRF Micro centrifuge) at 20000 G for 20 minutes at 4° C. After centrifugation 285 μL of the supernatant was pipetted into 600 μL microtubes tubes and neutralized with 15 μL of 1M Tris-HCL buffer.
WAKO 294-62501 Human/Rat Abeta amyloid (40) kit was used for all ELISA analyses. 30 μL plasma samples or 30 μL of the cortex supernatants generated as described above were placed in 600 μL microtubes tubes on wet ice. To this 30 μL of 8M Urea (AppliChem A1049, 9025) are added to generate a 2-fold dilution. Both plasma and cortex supernatants are incubated on ice for 30 min. Standard rows were prepared from the standard peptide stock provided in the kit and standard diluent containing 1.6M Urea (200 μL 8M Urea+800 μL of standard diluent) and 0.8M Urea (400 μL 8M Urea+3600 μL Standard diluent). A serial 2-fold dilution of Aβ40 from 100 pmol/ml to 0 pmol/L was prepared for the assay.
After incubation with urea, all samples were further diluted by addition of 5 times standard diluent from the Kit. This was done by adding 240 μL Standard Diluent to 60 μL sample/urea mixture, which was then mixed well. 100 μL of each diluted sample was pipetted into designated wells of the ELISA plate in duplicates. The plate was then covered and incubated overnight at 4° C. The following day, the ELISA kit was brought to room temperature before use. The incubated plate was washed 5 times with the 20× washing solution diluted in Milli Q water. 100 μL HRP-conjugate was applied to each well, and the plate was covered and incubates at 4° C. for 1 hr. The wash was repeated again for 5 times. 100 μL 3,3′,5,5′-Tetramethylbenzidine (TMB) solution was applied to each well and the plate was covered and incubated in the dark at room temperature for 30 minutes. […]

[2] = Brain and plasma exposure in rats after oral dosing (DMPK analysis); type: in vivo; conditions: male, Sprague Dawley, 3 hours post dose, rat, read-out: Brain/Plasma ratio
Protocol: as §1, §2
Compounds 1, 5, 17, 18, and 24 were administered at doses of 10 or 30 mg/kg p.o. and brain and plasma samples were collected at 3 hours post dose and the following exposures and reductions in Aβ40 levels were measured as described above.

[3] = target: human BACE1 (Homo sapiens (Human), UniProt P56817); assay: BACE1 binding assay (SPA-based, radioligand displacement); conditions: pH 4.5, Ki calculated from IC50
Protocol: The binding assay was performed as SPA-based assay using a biotinylated form of human BACE1 recombinantly expressed and subsequently purified from Freestyle HEK293 cells. The binding assay was run in a 50 mM sodium acetate buffer, pH 4.5 containing 50 mM NaCl and 0.03% Tween-20 in white clear bottom 384 plates (Corning #3653). 10 nM (final concentration) radioligand ([^3H]—N-((1S,2R)-1-benzyl-3-cyclopropylamino-2-hydroxy-propyl)-5-(methanesulfonyl-methyl-amino)-N—((R)-1-phenyl-ethyl)-isophthalamide) (TRQ11569 purchased from GE Healthcare) was mixed with test compound at a given concentration, 6 nM (final concentration) human BACE1 and 25 μg Streptavidin coated PVT core SPA beads (RPNQ0007, GE Healthcare Life Sciences) in a total volume of 40 μl. Several concentrations of each test compound were tested in the assay for IC50 determination. The plates were incubated for one hour at room temperature and counted in a Wallac Trilux counter. Total and non-specific binding were determined using buffer and 1 μM (final concentration) of the high affinity BACE1 reference inhibitor (S)-6-[3-chloro-5-(5-prop-1-ynyl-pyridin-3-yl)-thiophen-2-yl]-2-imino-3,6-dimethyl-tetrahydro-pyrimidin-4-one, respectively. For each test compound, a IC50 value (the concentration mediating 50% inhibition of the specific binding of the radioligand) was determined from concentration-response curve and used to calculate the Ki from the equation Ki=IC50/(1+L/Kd), where L and Kd are the final concentration of the radioligand used in the assay and the dissociation constant of the radioligand, respectively. The Kd of the radioligand was determined from saturation binding experiments.

Chain of human BACE1 (P56817 46-501): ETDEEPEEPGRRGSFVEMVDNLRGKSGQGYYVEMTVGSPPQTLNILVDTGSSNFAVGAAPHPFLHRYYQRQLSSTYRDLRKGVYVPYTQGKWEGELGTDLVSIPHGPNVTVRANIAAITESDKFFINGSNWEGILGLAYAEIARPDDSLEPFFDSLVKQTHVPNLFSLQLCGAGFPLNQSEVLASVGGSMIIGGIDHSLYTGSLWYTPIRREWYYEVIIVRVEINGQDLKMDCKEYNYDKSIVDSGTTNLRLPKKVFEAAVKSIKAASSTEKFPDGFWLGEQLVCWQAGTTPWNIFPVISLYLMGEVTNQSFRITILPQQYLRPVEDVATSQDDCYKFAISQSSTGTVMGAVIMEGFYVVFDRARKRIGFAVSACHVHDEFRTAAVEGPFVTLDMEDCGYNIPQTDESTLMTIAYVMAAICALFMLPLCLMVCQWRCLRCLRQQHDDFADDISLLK

| Structure (SMILES) | Ki [3] [µM] | further results |
| --- | --- | --- |
| C[C@@]1(F)CC(F)(F)[C@@](C)(c2cc(NC(=O)c3cnc(C(F)F)cn3)ccc2F)N=C1N [Compound 24, N-(3-((2R,5R)-6-amino-3,3,5-trifluoro-2,5-dimethyl-2,3,4,5-tetrahydropyridin-2-yl)-4-fluorophenyl)-5-(difluoromethyl)pyrazine-2-carboxamide] | 0.42 | Aβ40 reduction, Brain Rat ([1]; 10 mg/kg p.o.): 15%; Aβ40 reduction, Plasma Rat ([1]; 10 mg/kg p.o.): 28%; Aβ40 reduction, Brain Rat ([1]; 30 mg/kg p.o.): 49%; Aβ40 reduction, Plasma Rat ([1]; 30 mg/kg p.o.): 61%; Kp at 3 h ([2]; 10 mg/kg p.o.): 1.39; Kp at 3 h ([2]; 30 mg/kg p.o.): 1.2 |
| Cc1nc(C(=O)Nc2ccc(F)c([C@@]3(C)N=C(N)[C@@](C)(F)CC3(F)F)c2)co1 [Compound 7, N-(3-((2R,5S)-6-amino-3,3,5-trifluoro-2,5-dimethyl-2,3,4,5-tetrahydropyridin-2-yl)-4-fluorophenyl)-2-methyloxazole-4-carboxamide] | 0.033 |  |
| C[C@]1(F)CC(F)(F)[C@@](C)(c2cc(NC(=O)c3nc(CF)co3)ccc2F)N=C1N [Compound 14, N-(3-((2R,5S)-6-amino-3,3,5-trifluoro-2,5-dimethyl-2,3,4,5-tetrahydropyridin-2-yl)-4-fluorophenyl)-4-(fluoromethyl)oxazole-2-carboxamide] | 0.037 |  |
| Cc1nc(C(=O)Nc2ccc(F)c([C@@]3(C)N=C(N)[C@](C)(F)CC3(F)F)c2)no1 [Compound 35, N-(3-((2R,5R)-6-amino-3,3,5-trifluoro-2,5-dimethyl-2,3,4,5-tetrahydropyridin-2-yl)-4-fluorophenyl)-5-methyl-1,2,4-oxadiazole-3-carboxamide] | 0.68 |  |
| C[C@]1(F)CC(F)(F)[C@@](C)(c2cc(NC(=O)c3cnc(C(F)F)cn3)ccc2F)N=C1N [Compound 16, N-(3-((2R,5S)-6-amino-3,3,5-trifluoro-2,5-dimethyl-2,3,4,5-tetrahydropyridin-2-yl)-4-fluorophenyl)-5-(difluoromethyl)pyrazine-2-carboxamide] | 0.058 |  |
| Cc1csc(C(=O)Nc2ccc(F)c([C@@]3(C)N=C(N)[C@@](C)(F)CC3(F)F)c2)n1 [Compound 10, N-(3-((2R,5S)-6-amino-3,3,5-trifluoro-2,5-dimethyl-2,3,4,5-tetrahydropyridin-2-yl)-4-fluorophenyl)-4-methylthiazole-2-carboxamide] | 0.044 |  |
| COc1cnc(C(=O)Nc2ccc(F)c([C@@]3(C)N=C(N)[C@](C)(F)CC3(F)F)c2)nc1 [Compound 26, N-(3-((2R,5R)-6-amino-3,3,5-trifluoro-2,5-dimethyl-2,3,4,5-tetrahydropyridin-2-yl)-4-fluorophenyl)-5-methoxypyrimidine-2-carboxamide] | 0.13 |  |
| Cc1csc(C(=O)Nc2ccc(F)c([C@@]3(C)N=C(N)[C@](C)(F)CC3(F)F)c2)n1 [Compound 27, N-(3-((2R,5R)-6-amino-3,3,5-trifluoro-2,5-dimethyl-2,3,4,5-tetrahydropyridin-2-yl)-4-fluorophenyl)-4-methylthiazole-2-carboxamide] | 0.14 |  |
| Cc1ncc(C(=O)Nc2ccc(F)c([C@@]3(C)N=C(N)[C@](C)(F)CC3(F)F)c2)o1 [Compound 42, N-(3-((2R,5R)-6-amino-3,3,5-trifluoro-2,5-dimethyl-2,3,4,5-tetrahydropyridin-2-yl)-4-fluorophenyl)-2-methyloxazole-5-carboxamide trifluoroacetic acid salt] | 1.5 |  |
| COc1cnc(C(=O)Nc2ccc(F)c([C@@]3(C)N=C(N)[C@@](C)(F)CC3(F)F)c2)nc1 [Compound 12, N-(3-((2R,5S)-6-amino-3,3,5-trifluoro-2,5-dimethyl-2,3,4,5-tetrahydropyridin-2-yl)-4-fluorophenyl)-5-methoxypyrimidine-2-carboxamide] | 0.029 |  |
| C[C@@]1(F)CC(F)(F)[C@@](C)(c2cc(NC(=O)c3nc(CF)cs3)ccc2F)N=C1N [Compound 31, N-(3-((2R,5R)-6-amino-3,3,5-trifluoro-2,5-dimethyl-2,3,4,5-tetrahydropyridin-2-yl)-4-fluorophenyl)-4-(fluoromethyl)thiazole-2-carboxamide] | 0.092 |  |
| Cn1cnc(C(=O)Nc2ccc(F)c([C@@]3(C)N=C(N)[C@@](C)(F)CC3(F)F)c2)n1 [Compound 22, N-(3-((2R,5S)-6-amino-3,3,5-trifluoro-2,5-dimethyl-2,3,4,5-tetrahydropyridin-2-yl)-4-fluorophenyl)-1-methyl-1H-1,2,4-triazole-3-carboxamide] | 0.11 |  |
| Cc1nnc(C(=O)Nc2ccc(F)c([C@@]3(C)N=C(N)[C@@](C)(F)CC3(F)F)c2)o1 [Compound 20, N-(3-((2R,5S)-6-amino-3,3,5-trifluoro-2,5-dimethyl-2,3,4,5-tetrahydropyridin-2-yl)-4-fluorophenyl)-5-methyl-1,3,4-oxadiazole-2-carboxamide] | 1.6 |  |
| COc1cnc(C(=O)Nc2ccc(F)c([C@@]3(C)N=C(N)[C@@](C)(F)CC3(F)F)c2)c(F)c1 [Compound 46, N-(3-((2R,5S)-6-amino-3,3,5-trifluoro-2,5-dimethyl-2,3,4,5-tetrahydropyridin-2-yl)-4-fluorophenyl)-3-fluoro-5-methoxypicolinamide] | 0.014 |  |
| C[C@@]1(F)CC(F)(F)[C@@](C)(c2cc(NC(=O)c3ccc(C#N)cn3)ccc2F)N=C1N [Compound 32, N-(3-((2R,5R)-6-amino-3,3,5-trifluoro-2,5-dimethyl-2,3,4,5-tetrahydropyridin-2-yl)-4-fluorophenyl)-5-cyanopicolinamide] | 0.051 |  |
| C[C@@]1(F)CC(F)(F)[C@@](C)(c2cc(NC(=O)c3ccc(C(F)(F)F)cn3)ccc2F)N=C1N [Compound 28, N-(3-((2R,5R)-6-amino-3,3,5-trifluoro-2,5-dimethyl-2,3,4,5-tetrahydropyridin-2-yl)-4-fluorophenyl)-5-(trifluoromethyl)picolinamide] | 0.17 |  |
